Activity calls are given as the source filed them.
Experiments:
Genome polyprotein = Genome polyprotein (dengue virus type 2, UniProt P29990); test: Dengue-2 NS5 methyltransferase inhibitors, primary screen, biochemical, confirmation dose response (AID 588689); type: functional
NS3 = NS3 (Hepatitis C virus, UniProt A3EZJ3); test: PubChem AID 2173; parameters: species or system Hepacivirus hominis
[1] = molecular target: T1, Low molecular weight phosphotyrosine protein phosphatase (Homo sapiens, UniProt P24666); type: functional; details: read-out: IC50_Mean
T1 sequence (P24666 whole entry): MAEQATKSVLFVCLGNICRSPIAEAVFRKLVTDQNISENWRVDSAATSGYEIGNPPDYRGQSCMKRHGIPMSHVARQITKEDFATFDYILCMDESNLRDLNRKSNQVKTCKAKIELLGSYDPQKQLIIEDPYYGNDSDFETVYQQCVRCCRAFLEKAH

[2] = molecular target: T1, Low molecular weight phosphotyrosine protein phosphatase; type: functional; details: read-out: IC50_Mean; remark: listed apart in the source
[3] = molecular target: NAD-dependent protein deacylase sirtuin-5, mitochondrial (Homo sapiens, UniProt Q9NXA8); test: SIRT5 desuccinylase inhibitors, dose response, biochemical, fluorescence imaging, cherry-pick, set 5 (AID 720591);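 also: desuccinylation of succinyl peptide AMC substrate read as fluorescence after trypsin release; potency of inhibitors that lower fluorescence and may act on trypsin instead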
Vero = Vero cell cytotoxicity, cytotoxicity control for flavivirus capping enzyme inhibitors (AID 588742); type: functional; details: Chlorocebus sabaeus
[4] = molecular target: T2, Probable nicotinate-nucleotide adenylyltransferase (Staphylococcus aureus (strain N315), UniProt P65502); type: functional, Staphylococcus aureus subsp. aureus N315; details: read-out: IC50_Mean;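 as to IC50 Mean: confirmatory dose-response retesting of NadD inhibitor hits first found in an ultra-high-throughput screen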
[5] = molecular target: T2, Probable nicotinate-nucleotide adenylyltransferase; type: functional, Staphylococcus aureus subsp. aureus N315
[6] = Late-stage probe development counterscreen for inhibitors of the Hepatitis C Virus non-structural protein 3 helicase (NS3): luminescence-based cell-based dose response assay to determine whether compounds that inhibit replication of HCV RNA replicon are cytotoxic. [Related pubchem assays (depositor defined):AID1800, AID1830, AID1845, AID1943, AID1945, AID2172, AID2173, AID2474, AID2476]; type: functional
[7] = molecular target: T3, Microphthalmia-associated transcription factor (Homo sapiens, UniProt O75030); test: TRPM1 promoter luciferase signal decrease, dose response, MITF inhibitor project, cell-based, SK-MEL-5, cherry-picked, set 3 (AID 493073); type: functional
T3 sequence (O75030 whole entry): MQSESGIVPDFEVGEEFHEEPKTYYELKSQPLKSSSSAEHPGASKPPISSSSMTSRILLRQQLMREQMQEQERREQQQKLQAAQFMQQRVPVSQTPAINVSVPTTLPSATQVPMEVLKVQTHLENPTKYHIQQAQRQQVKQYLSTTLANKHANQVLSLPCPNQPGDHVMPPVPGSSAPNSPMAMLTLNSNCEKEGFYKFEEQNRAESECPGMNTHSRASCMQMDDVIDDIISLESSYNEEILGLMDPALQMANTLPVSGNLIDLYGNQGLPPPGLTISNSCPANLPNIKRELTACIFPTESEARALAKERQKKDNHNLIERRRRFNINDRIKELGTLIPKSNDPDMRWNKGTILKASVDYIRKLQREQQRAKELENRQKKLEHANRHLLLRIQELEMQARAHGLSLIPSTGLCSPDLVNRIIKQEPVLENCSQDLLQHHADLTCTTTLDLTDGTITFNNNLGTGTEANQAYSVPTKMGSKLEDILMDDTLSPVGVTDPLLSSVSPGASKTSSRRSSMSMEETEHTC

A-375 = test: MITF: Counter assay: A375 proliferation Measured in Cell-Based System Using Plate Reader - 2084-03_Inhibitor_Dose_DryPowder_Activity. [Related pubchem assays (depositor defined):AID488944]; type: functional; details: Homo sapiens

T2 sequence (P65502 whole entry): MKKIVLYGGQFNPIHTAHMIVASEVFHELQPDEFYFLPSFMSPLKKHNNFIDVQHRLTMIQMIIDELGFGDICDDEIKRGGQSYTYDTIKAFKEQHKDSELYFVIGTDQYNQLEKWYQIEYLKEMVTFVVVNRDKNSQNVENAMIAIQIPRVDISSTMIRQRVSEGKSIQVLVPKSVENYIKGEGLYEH
Chain of NS3 (A3EZJ3 whole entry): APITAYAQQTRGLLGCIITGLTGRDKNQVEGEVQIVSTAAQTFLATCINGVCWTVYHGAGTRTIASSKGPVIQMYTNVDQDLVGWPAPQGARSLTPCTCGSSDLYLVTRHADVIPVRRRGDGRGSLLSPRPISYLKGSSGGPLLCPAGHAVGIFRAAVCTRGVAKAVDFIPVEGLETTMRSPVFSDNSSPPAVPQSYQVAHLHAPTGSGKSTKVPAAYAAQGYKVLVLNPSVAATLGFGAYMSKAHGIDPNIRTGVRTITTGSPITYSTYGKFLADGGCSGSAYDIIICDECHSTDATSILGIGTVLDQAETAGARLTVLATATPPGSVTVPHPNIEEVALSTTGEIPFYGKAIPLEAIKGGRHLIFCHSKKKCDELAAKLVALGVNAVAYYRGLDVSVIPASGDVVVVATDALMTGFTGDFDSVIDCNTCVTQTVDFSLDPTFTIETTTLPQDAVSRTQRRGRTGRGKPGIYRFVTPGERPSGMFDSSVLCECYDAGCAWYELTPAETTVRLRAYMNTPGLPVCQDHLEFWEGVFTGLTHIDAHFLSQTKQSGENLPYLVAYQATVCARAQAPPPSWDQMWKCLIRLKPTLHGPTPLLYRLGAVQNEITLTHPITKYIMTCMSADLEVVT
Chain of Genome polyprotein (P29990 2492-3391 limits assumed): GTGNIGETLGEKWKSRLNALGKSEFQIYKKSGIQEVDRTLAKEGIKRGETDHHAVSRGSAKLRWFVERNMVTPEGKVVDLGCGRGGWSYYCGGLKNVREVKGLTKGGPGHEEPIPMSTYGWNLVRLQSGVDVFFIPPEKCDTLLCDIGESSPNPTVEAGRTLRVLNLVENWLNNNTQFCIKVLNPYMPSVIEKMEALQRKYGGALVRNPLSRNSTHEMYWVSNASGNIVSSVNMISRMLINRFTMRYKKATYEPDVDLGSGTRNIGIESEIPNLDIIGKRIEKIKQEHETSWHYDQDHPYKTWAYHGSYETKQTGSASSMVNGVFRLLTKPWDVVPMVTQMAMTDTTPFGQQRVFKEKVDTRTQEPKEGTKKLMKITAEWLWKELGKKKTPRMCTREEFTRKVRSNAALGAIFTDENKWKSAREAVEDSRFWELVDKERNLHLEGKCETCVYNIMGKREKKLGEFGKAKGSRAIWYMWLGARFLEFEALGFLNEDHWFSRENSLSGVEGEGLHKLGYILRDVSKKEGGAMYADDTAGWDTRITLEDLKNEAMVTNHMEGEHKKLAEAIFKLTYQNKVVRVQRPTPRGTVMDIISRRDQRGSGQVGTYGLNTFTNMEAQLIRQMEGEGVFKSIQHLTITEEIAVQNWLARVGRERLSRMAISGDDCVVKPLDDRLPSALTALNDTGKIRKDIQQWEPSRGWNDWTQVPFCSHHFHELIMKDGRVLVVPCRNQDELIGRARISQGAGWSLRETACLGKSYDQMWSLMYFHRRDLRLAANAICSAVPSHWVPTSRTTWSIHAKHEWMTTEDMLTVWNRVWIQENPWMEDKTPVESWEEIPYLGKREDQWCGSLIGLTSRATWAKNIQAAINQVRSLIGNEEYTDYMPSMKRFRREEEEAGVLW
Chain of NAD-dependent protein deacylase sirtuin-5, mitochondrial (Q9NXA8 whole entry): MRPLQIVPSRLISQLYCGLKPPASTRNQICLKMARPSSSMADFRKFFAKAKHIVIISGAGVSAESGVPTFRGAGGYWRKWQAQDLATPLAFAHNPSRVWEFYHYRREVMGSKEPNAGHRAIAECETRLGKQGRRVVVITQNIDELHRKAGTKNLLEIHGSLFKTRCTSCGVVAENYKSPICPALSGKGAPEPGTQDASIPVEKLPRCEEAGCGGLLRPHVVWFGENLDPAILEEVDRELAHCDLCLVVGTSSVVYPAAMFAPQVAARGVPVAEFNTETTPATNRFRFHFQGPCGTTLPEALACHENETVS

With `Cc1cc(N2C(=O)C(O)=C(C(=O)c3ccc(C)o3)C2c2ccc(OCc3ccccc3)cc2)no1` (stereo unspecified) the IC50 (Genome polyprotein) was > 100 µM (active), the IC50 (NS3) was 1.74 µM (active) and the IC50 [1] was 2.98 µM (active). The IC50 [2] was > 80 µM (inactive), the AC50 [3] was > 30 µM (inactive) and the CC50 (Vero) was > 40 µM (active). The IC50 [4] was 28.9 µM (active), the IC50 [5] was 8.93 µM (active) and the CC50 [6] was > 100 µM (inactive).

For `CC(C)(C)c1ccc(OCCCNCc2ccccc2)cc1`, the AC50 [7] was 18.4 µM (active) and the AC50 (A-375) was 29.7 µM (active).
